From patent US9707212B2, “S-nitrosoglutathione reductase inhibitors” (Nivalis Therapeutics, Inc., priority 2010, dated 2017)

Experiments:
[1] = Mouse pharmacokinetic (PK) study; format: in vivo, male BALB/c mice; conditions: mice; for bioavailability: male, BALB/c, mouse, plasma, PO 10 mg/kg, IV 2 mg/kg
Text: The mouse was used to determine the pharmacokinetics of compounds of the invention. This species is widely used to assess the bioavailability of compounds by administering both oral (PO) and intravenous (IV) test articles. Efficacy of the compounds of the invention was compared by assessing plasma exposure in male BALB/c mice either via IV or PO administration at the times of peak activity.
Compounds of the invention were reconstituted in a phosphate buffered saline (PBS)/10% Solutol (HS 15) clear solution resulting in a concentration of 0.2 mg/ml and administered to mice (2 mg/kg) as a single IV dose. Animals were dosed via the lateral tail vein. Blood samples were collected at designated time points (0.083, 0.25, 0.5, 1, 2, 4, 8, 16, 24 hours) by cardiac puncture under isoflurane anesthesia (up to 1 ml blood per animal). The blood was collected into tubes containing Li-Heparin. The blood samples were kept on ice until centrifugation within approximately 30 minutes of collection. The plasma was transferred into labeled polypropylene tubes and frozen at −70° C. until analyzed by LC/MS/MS.
The compounds of the invention were reconstituted in 40% Propylene Glycol/40% Propylene Carbonate/20% of a 5% Sucrose clear solution resulting in a concentration of 2 mg/ml and administered to mice (10 mg/kg) as a single oral dose via gavage. Blood samples were collected at 0.25, 0.5, 1, 2, 4, 8, 12, 16, 20 and 24 hours post dose by cardiac puncture under isoflurane anesthesia. The blood was collected in tubes containing Li-Heparin. The blood samples were kept on ice until centrifugation within approximately 30 minutes of collection. The plasma was transferred into labeled polypropylene tubes and frozen at −70° C. until analyzed by LC/MS/MS.
Plasma samples at each time point were analyzed using a LC-MS/MS with a lower limit of quantification (LLOQ) of 1 ng/ml. Plasma was analyzed to determine the amount of the compound of the invention in each sample and regression curves generated for each compounds of the invention in the relevant matrixes.
WinNonlin analysis was used for calculating PK parameters for both the IV and PO administrations: • PK parameters for IV portion—AUClast; AUCINF; T1/2; Cl; Vss; Cmax; MRT • PK parameters for PO portion—AUClast; AUCINF; T1/2; Cmax; Cl, MRT.
In addition to the above PK parameters, bioavailability (% F) was calculated.

acute DSS-induced IBD = experiment: Acute prophylactic model of DSS-induced IBD in mice; format: in vivo, male C57Bl/6 mice; conditions: for effect on colon injury: mouse model of acute DSS-induced IBD; for decrease of percent of mice with severe colon injury scores via endoscopy, of vehicle control / decrease of percent of mice with severe colon injury scores via histopathology, of vehicle control: prophylactic regimen
Text: Acute and chronic models of dextran sodium sulfate (DSS)-induced IBD in mice were used to explore efficacy of GSNORi against this disease. Acute and chronic DSS-induced IBD are widely used and well characterized models that induce pathological changes in the colon similar to those observed in the human disease. In these models and in human disease, epithelial cells within the crypts of the colon are disrupted, leading to dysfunction of the epithelial barrier and the ensuing tissue inflammation, edema, and ulceration. GSNORi therapy may benefit IBD by restoring s-nitrosoglutathione (GSNO) levels, and thus prevent or reverse the epithelial barrier dysfunction. Experimental IBD was induced by administration of DSS in the drinking water of male C57Bl/6 mice (N=8 to 10 mice per group) for 6 consecutive days. GSNORi was dosed orally at doses of 0.1 to 10 mg/kg/day for 10 days starting two days prior to and continuing two days post DSS exposure. Two days post DSS exposure, the effect of GSNORi was assessed in a blinded fashion via endoscopy and histopathology using a five point scale ranging from a score=0 (normal tissue) through a score=4 (ulcerative tissue damage and marked pathological changes). Levels of circulating cytokines involved in inflammatory pathways were also assessed. The effect of GSNORi was compared to vehicle treated controls. The corticosteroid, prednisolone, was used as the positive control in this study and was administered daily at 3 mg/kg/day via oral dosing. Naïve mice (N=5) were also assessed as a normal tissue control.

[2] = system: cigarette smoke-induced COPD; experiment: Acute (4 day) cigarette smoke exposure COPD model; format: in vivo, female C57Bl/6 mice; conditions: oral 10 mg/kg/day for 7 days, acute 4 day smoke model
Procedure: The efficacy of GSNOR inhibitors was assessed in a mouse model of chronic obstructive pulmonary disease (COPD) induced by short duration (4 days or 11 days) of exposure to cigarette smoke. Infiltration of inflammatory cells into the bronchoalveolar lavage fluid (BALF) and BALF levels of chemokines involved in inflammation and tissue turnover/repair were measured to assess the influences of GSNOR inhibitors on some of the early events associated with the initiation and progression of COPD.
Efficacy of GSNOR inhibitors against COPD was explored using acute (4 day) and subchronic (11 day) models of cigarette smoke-induced COPD in mice. […] In animal models, changes in lung pathology are only evident after extended (several months) duration of exposure to cigarette smoke, thus making chronic models prohibitive as effective screening tools. More recently, models exploring inflammatory responses after short duration (2 weeks or less) of smoke exposure in mice have been utilized as tools for screening efficacy and mechanisms of action of novel therapeutics against COPD. The key roles of inflammation in the initiation and progression of COPD, make these short duration models relevant for initial tests of efficacy of novel therapeutics.
Female C57Bl/6 mice (N=8 per group) were exposed to cigarette smoke using a whole body exposure chamber. Mice were exposed daily for 4 consecutive days to 4 cycles of smoke from 6 sequential cigarettes (Kentucky 3R4F without filter) with a 30 minute smoke free interval between cycles. GSNOR inhibitors were administered daily via oral dosing at 10 mg/kg/day for 7 days starting 2 days prior to smoke exposure and continuing 1 day post-exposure. The effects of GSNOR inhibitors were assessed by quantitating the numbers of total cells, leukocytes, and leukocytes differentials in the BALF via light microscopy and the levels of BALF chemokines via ELISA at approximately 24 h after the last smoke exposure. The effect of GSNOR inhibitors were compared to vehicle treated controls. The PDE4 inhibitor, roflumilast, was used as the positive control for the study. A group of naïve mice (N=8) was exposed to air and used as a negative control for the study.

[3] = system: cigarette smoke-induced COPD; experiment: Subchronic (11 day) cigarette smoke exposure COPD model; format: in vivo, female C57Bl/6 mice; conditions: oral 1 mg/kg/day for 11 days, subchronic 11 day model
Procedure: The efficacy of GSNOR inhibitors was assessed in a mouse model of chronic obstructive pulmonary disease (COPD) induced by short duration (4 days or 11 days) of exposure to cigarette smoke. Infiltration of inflammatory cells into the bronchoalveolar lavage fluid (BALF) and BALF levels of chemokines involved in inflammation and tissue turnover/repair were measured to assess the influences of GSNOR inhibitors on some of the early events associated with the initiation and progression of COPD. Efficacy of GSNOR inhibitors against COPD was explored using acute (4 day) and subchronic (11 day) models of cigarette smoke-induced COPD in mice. […] In animal models, changes in lung pathology are only evident after extended (several months) duration of exposure to cigarette smoke, thus making chronic models prohibitive as effective screening tools. […] The effects of GSNOR inhibitors were assessed by quantitating the number of total cells, and leukocytes differentials in the BALF via light microscopy at 24 h after the last exposure. The effect of GSNOR inhibitors were compared to vehicle treated controls and expressed as percent inhibition of the cigarette smoke induced increases in BALF cell numbers. […]

[4] = oral 10 mg/kg/day for 10 consecutive days

SMILES	bioavailability [1]	effect on colon injury (acute DSS-induced IBD)	decrease of percent of mice with severe colon injury scores via endoscopy, of vehicle control (acute DSS-induced IBD; [4])	decrease of percent of mice with severe colon injury scores via histopathology, of vehicle control (acute DSS-induced IBD; [4])	other results
Cc1sc2cc(O)ccc2c(=O)c1-c1ccc(-c2nnn[nH]2)cc1 [Example 12, 3-(4-(1H-tetrazol-5-yl)phenyl)-7-hydroxy-2-methyl-4H-thiochromen-4-one]	4 to 41%	–	–	–	–
O=C(O)c1ccc(-c2c(C(F)(F)F)oc3cc(O)ccc3c2=O)c(F)c1 [Example 16, 3-fluoro-4-(7-hydroxy-4-oxo-2-(trifluoromethyl)-4H-chromen-3-yl)benzoic acid]	~44%	attenuated colon injury	58%	15%	effects on BAL cells compared with roflumilast [3]: comparable to those of roflumilast
O=C(O)c1ccc(-c2c(C(F)(F)F)oc3cc(O)ccc3c2=O)cc1 [comparator compound, 4-(7-hydroxy-4-oxo-2-(trifluoromethyl)-4H-chromen-3-yl)benzoic acid, reference compound]	~17%	–	–	–	clearance (Cl) relative to Example 16 [1]: about three times faster than Example 16

Second part, led by results:

bioavailability [1]	SMILES	effect on colon injury (acute DSS-induced IBD)	decrease of percent of mice with severe colon injury scores via endoscopy, of vehicle control (acute DSS-induced IBD; [4])	decrease of percent of mice with severe colon injury scores via histopathology, of vehicle control (acute DSS-induced IBD; [4])	other results
4 to 41%	O=c1c(-c2ccc(-c3nnn[nH]3)cc2)c(C(F)(F)F)oc2cc(O)ccc12 [Example 1, 3-(4-(1H-tetrazol-5-yl)phenyl)-7-hydroxy-2-(trifluoromethyl)-4H-chromen-4-one]	attenuated colon injury	75%	17%	–
4 to 41%	O=c1c2ccc(O)cc2oc(C(F)(F)F)c1[C@H]1CC[C@H](C(=O)O)CC1 [Example 3, (trans)-4-(7-hydroxy-4-oxo-2-(trifluoromethyl)-4H-chromen-3-yl)cyclohexanecarboxylic acid]	attenuated colon injury	–	–	effect on BALF chemokines [2]: restored BALF chemokines towards levels observed in naïve mice; effects on BALF cells compared with roflumilast [2]: comparable to or greater than those observed for roflumilast; inhibition of smoke-induced increase in eosinophils in BALF [2]: 100%; inhibition of smoke-induced increase in leukocytes in BALF [2]: 100%; inhibition of smoke-induced increase in macrophages in BALF [2]: 100%; inhibition of smoke-induced increase in neutrophils in BALF [2]: 100%; inhibition of smoke-induced increase in total cells in BALF [2]: 100%; decrease of percent of mice with severe colon injury scores via endoscopy, of vehicle control (acute DSS-induced IBD; oral 0.1 mg/kg/day for 10 consecutive days): 38%; decrease of percent of mice with severe colon injury scores via endoscopy, of vehicle control (acute DSS-induced IBD; oral 1 mg/kg/day for 10 consecutive days): 25%
4 to 41%	O=c1[nH]c(-c2ccc(-c3c(C(F)(F)F)oc4cc(O)ccc4c3=O)cc2)no1 [Example 9, 3-(4-(7-hydroxy-4-oxo-2-(trifluoromethyl)-4H-chromen-3-yl)phenyl)-1,2,4-oxadiazol-5(4H)-one]	–	–	–	–
